According to ChEMBL document CHEMBL2440066, “Acidic biphenyl derivatives: synthesis and biological activity of a new series of potent 5-HT(4) receptor antagonists” (Bioorg Med Chem, 2013):

Columns and labels:
[1] = molecular target: T1, 5-hydroxytryptamine receptor 4 (Homo sapiens, UniProt Q13639); test: Antagonist activity at human 5HT4B receptor expressed in HEK293 cells assessed as inhibition of 5HT-stimulated adenylyl cyclase activity; type: functional, cell-based
3T3-L1 = test: Cytotoxicity against mouse 3T3L1 cells assessed as cell death at 5 ug/ml after 72 hrs by neutral red assay; type: cell-based; details: 3t3-l1, 72 h
[2] = molecular target: T1, 5-hydroxytryptamine receptor 4; test: Displacement of [3H]GR113808 from human 5HT4B receptor expressed in HEK293 cells; type: cell-based
[3] = molecular target: T2, Type-1 angiotensin II receptor (Homo sapiens, UniProt P30556); test: Displacement of [tyrosyl-3,5-3H]angiotensin-2 from AT1 receptor (unknown origin) expressed in QBI-HEK293A cells after 2 hrs; type: cell-based, HEK293-A
T2 sequence (P30556 whole entry): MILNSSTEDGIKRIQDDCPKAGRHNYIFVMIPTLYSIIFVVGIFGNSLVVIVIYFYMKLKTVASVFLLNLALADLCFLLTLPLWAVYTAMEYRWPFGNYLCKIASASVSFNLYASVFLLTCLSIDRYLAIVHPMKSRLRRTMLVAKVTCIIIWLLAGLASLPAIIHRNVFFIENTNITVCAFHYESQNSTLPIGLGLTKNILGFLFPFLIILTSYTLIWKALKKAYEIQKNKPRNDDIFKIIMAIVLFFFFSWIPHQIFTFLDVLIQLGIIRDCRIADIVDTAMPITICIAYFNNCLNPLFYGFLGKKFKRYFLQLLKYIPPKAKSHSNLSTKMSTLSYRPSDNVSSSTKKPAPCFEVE

[4] = Apparent permeability of the compound in human Caco2 cells at 1 uM; type: ADME, cell-based; details: Caco-2
[5] = Octanol-buffer partition coefficient, log D of the compound at pH 7.4; type: physicochemical
Rattus norvegicus [6] = test: Elimination half life in Sprague-Dawley rat assessed as 4'-((4-(((3,4-Dihydro-2H-[1,3]oxazino[3,2-a]indole-10-carbonyl)oxy)methyl)piperidin-1-yl)methyl)[1,1'-biphenyl]-2-carboxylic acid level at 10 mg/kg, po; type: ADME, organism-based; design: dose 10 mg/kg, route oral; details: in vivo
hERG (KCNH2) [7] = molecular target: T3, hERG (KCNH2) (Homo sapiens, UniProt Q12809); test: Inhibition of human ERG expressed in HEK293 cells at 10 uM by patch-clamp technique; type: cell-based; details: HEK293 cells that express hERG
Rattus norvegicus [8] = test: Cmax in Sprague-Dawley rat assessed as 4'-((4-(((3,4-Dihydro-2H-[1,3]oxazino[3,2-a]indole-10-carbonyl)oxy)methyl)piperidin-1-yl)methyl)[1,1'-biphenyl]-2-carboxylic acid level at 10 mg/kg, po; type: ADME, organism-based; design: dose 10 mg/kg, route oral; details: in vivo
Rattus norvegicus [9] = test: AUC (0 to infinity) in Sprague-Dawley rat assessed as 4'-((4-(((3,4-Dihydro-2H-[1,3]oxazino[3,2-a]indole-10-carbonyl)oxy)methyl)piperidin-1-yl)methyl)[1,1'-biphenyl]-2-carboxylic acid level at 10 mg/kg, po; type: ADME, organism-based, Plasma; design: time infinity, dose 10 mg/kg, route oral; details: in vivo
Rattus norvegicus [10] = test: AUC (0 to 6 hrs) in Sprague-Dawley rat assessed as 4'-((4-(((3,4-Dihydro-2H-[1,3]oxazino[3,2-a]indole-10-carbonyl)oxy)methyl)piperidin-1-yl)methyl)[1,1'-biphenyl]-2-carboxylic acid level at 10 mg/kg, po; type: ADME, organism-based, Plasma; design: time < 6 hr, dose 10 mg/kg, route oral; details: in vivo
[11] = Cmax in Sprague-Dawley rat at 10 mg/kg, po; type: ADME, organism-based; design: dose 10 mg/kg, route oral; details: in vivo
[12] = molecular target: Voltage-gated inwardly rectifying potassium channel KCNH2 (Homo sapiens, UniProt Q12809); test: Inhibition of human ERG expressed in HEK293 cells by patch-clamp technique; type: cell-based
Rattus norvegicus [13] = test: Tmax in Sprague-Dawley rat assessed as 4'-((4-(((3,4-Dihydro-2H-[1,3]oxazino[3,2-a]indole-10-carbonyl)oxy)methyl)piperidin-1-yl)methyl)[1,1'-biphenyl]-2-carboxylic acid level at 10 mg/kg, po; type: ADME, organism-based; design: dose 10 mg/kg, route oral; details: in vivo
[14] = Tmax in Sprague-Dawley rat at 10 mg/kg, po; type: ADME, organism-based; design: dose 10 mg/kg, route oral; details: in vivo
[15] = AUC (0 to 6 hrs) in Sprague-Dawley rat at 10 mg/kg, po; type: ADME, organism-based; design: time < 6 hr, dose 10 mg/kg, route oral; details: plasma
[16] = molecular target: 5-hydroxytryptamine receptor 4 (Rattus norvegicus) (UniProt Q62758); test: Antagonist activity at 5-HT4 receptor in rat carbachol-contracted esophagus muscularis mucosae assessed as inhibition of 5-HT-induced relaxation
hERG (KCNH2) [17] = molecular target: T3, hERG (KCNH2); test: Inhibition of human ERG expressed in HEK293 cells at 100 uM by patch-clamp technique; type: cell-based; details: HEK293 cells that express hERG
[18] = molecular target: 5-hydroxytryptamine receptor 4 (Cavia porcellus, UniProt O70528); test: Displacement of [125I]SB207710 from 5-HT4 receptor in guinea pig brain membranes; type: cell membranes, Membrane
[19] = molecular target: T1, 5-hydroxytryptamine receptor 4; test: Displacement of [125I]SB207710 from human recombinant 5-HT4 receptor
[20] = molecular target: 5-hydroxytryptamine receptor 4 (Rattus norvegicus) (UniProt Q62758); test: Antagonist activity at 5-HT4 receptor in rat esophagus assessed as inhibition of 5-HT-induced relaxation; type: tissue-based
hERG (KCNH2) [21] = molecular target: T3, hERG (KCNH2); test: Inhibition of human ERG expressed in HEK293 cells at 50 uM by patch-clamp technique; type: cell-based; details: HEK293 cells that express hERG

Sequence of 5-hydroxytryptamine receptor 4 (Rattus norvegicus) (Q62758 whole entry): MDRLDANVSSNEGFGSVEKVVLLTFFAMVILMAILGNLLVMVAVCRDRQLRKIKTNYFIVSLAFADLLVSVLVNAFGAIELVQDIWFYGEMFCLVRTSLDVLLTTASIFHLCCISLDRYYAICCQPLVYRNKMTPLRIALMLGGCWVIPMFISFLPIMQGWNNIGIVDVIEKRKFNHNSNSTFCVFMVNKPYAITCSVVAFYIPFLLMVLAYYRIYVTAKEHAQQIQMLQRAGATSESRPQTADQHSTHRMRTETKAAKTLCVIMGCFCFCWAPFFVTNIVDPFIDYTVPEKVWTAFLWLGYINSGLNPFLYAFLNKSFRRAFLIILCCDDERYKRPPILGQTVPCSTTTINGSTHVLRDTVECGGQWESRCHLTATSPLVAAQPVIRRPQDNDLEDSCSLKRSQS
T1 sequence (Q13639 whole entry): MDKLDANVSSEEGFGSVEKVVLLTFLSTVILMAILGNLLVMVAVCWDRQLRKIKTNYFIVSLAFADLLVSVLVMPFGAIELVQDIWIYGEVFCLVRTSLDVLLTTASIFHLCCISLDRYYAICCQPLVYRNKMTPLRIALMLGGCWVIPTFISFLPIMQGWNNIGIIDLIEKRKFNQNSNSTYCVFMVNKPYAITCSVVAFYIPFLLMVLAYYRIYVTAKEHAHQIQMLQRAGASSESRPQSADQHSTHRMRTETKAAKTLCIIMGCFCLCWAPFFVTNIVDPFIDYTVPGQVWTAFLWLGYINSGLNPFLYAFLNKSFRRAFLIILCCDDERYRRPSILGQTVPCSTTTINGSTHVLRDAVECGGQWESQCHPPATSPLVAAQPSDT
Sequence of Voltage-gated inwardly rectifying potassium channel KCNH2 (Q12809 whole entry): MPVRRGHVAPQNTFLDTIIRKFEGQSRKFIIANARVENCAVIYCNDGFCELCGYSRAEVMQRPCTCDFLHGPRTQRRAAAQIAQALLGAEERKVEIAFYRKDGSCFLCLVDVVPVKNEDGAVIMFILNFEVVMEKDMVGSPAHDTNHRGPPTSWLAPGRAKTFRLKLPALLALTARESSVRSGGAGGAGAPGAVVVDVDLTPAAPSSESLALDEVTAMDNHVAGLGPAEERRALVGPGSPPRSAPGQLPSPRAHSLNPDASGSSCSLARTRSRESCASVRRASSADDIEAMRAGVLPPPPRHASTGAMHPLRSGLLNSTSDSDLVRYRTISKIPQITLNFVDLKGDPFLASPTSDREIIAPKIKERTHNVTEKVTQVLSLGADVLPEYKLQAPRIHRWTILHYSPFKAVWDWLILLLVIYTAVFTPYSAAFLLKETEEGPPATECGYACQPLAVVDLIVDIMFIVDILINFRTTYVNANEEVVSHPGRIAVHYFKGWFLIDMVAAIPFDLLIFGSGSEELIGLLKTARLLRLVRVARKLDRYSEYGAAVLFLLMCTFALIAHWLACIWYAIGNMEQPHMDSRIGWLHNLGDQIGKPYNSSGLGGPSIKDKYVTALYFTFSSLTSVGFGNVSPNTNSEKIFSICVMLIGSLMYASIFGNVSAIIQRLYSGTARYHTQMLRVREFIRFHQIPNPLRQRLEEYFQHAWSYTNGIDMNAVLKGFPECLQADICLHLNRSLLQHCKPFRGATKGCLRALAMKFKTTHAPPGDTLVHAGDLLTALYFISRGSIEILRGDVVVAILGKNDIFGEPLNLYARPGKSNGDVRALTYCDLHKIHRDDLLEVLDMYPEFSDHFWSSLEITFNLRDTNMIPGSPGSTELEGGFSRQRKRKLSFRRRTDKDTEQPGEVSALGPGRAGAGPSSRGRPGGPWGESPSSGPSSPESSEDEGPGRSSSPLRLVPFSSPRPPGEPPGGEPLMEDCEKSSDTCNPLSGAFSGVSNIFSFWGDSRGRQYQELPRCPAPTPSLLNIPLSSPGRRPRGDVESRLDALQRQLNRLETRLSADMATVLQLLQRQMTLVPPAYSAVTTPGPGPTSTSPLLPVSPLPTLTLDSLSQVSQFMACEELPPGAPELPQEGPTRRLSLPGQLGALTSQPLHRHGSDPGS
T3 sequence (Q12809 whole entry): as above
Sequence of 5-hydroxytryptamine receptor 4 (Cavia porcellus, UniProt O70528) (O70528 whole entry): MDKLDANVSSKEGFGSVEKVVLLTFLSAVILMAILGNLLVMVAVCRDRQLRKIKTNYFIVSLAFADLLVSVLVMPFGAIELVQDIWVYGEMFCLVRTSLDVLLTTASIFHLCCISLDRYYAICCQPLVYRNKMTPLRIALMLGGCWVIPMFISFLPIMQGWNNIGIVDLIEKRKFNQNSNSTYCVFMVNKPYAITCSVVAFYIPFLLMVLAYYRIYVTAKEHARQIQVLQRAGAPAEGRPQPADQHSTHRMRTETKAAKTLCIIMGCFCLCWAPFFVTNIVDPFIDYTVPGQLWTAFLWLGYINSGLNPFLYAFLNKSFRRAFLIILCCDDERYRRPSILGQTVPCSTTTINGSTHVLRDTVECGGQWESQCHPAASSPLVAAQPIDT

O=C(NCC1CCN(Cc2ccc(-c3ccccc3-c3nnn[nH]3)cc2)CC1)c1c2n(c3ccccc13)CCCO2
pKb [1]: 9.7
Activity (3T3-L1): 0%
Ki [2]: 3.98 nM
Ki [3]: > 10000 nM

CC(C)NCC(O)c1ccc(NS(C)(=O)=O)cc1 (stereo unspecified) [SOTALOL]
Papp at 1 µM [4]: 0.8 ×10⁻⁶ cm/s

COC(=O)c1ccccc1-c1ccc(CN2CCC(COC(=O)c3c4n(c5ccccc35)CCCO4)CC2)cc1.CS(=O)(=O)O
logD [5]: 4.5
pKb [1]: 10.6
beta t1/2 (Rattus norvegicus [6]): 15.6 h
inhibition at 10 µM (hERG (KCNH2) [7]): 2%
Cmax (Rattus norvegicus [8]): 30 ng/mL
Activity (3T3-L1): 75%
AUC (Rattus norvegicus [9]): 542 ng·h/mL
AUC (Rattus norvegicus [10]): 114 ng·h/mL
Ki [2]: 0.00126 nM
Ki [3]: > 10000 nM
Papp at 1 µM [4]: 25 ×10⁻⁶ cm/s
Cmax [11]: 244 ng/mL
IC50 [12]: 131 nM
Tmax (Rattus norvegicus [13]): 1 h
Tmax [14]: 2 h
AUC(0-t) at 6 h [15]: 1110 ng·h/mL

CCCCN1CCC(CCC(=O)c2cc(Cl)c(N)c3c2OCCO3)CC1
pKb [16]: 9.9

O=C(O)c1ccccc1-c1ccc(CN2CCC(CNC(=O)c3c4n(c5ccccc35)CCCO4)CC2)cc1
Ki [2]: 0.631 nM
Ki [3]: > 10000 nM

CS(=O)(=O)O.O=C(O)c1ccccc1-c1ccc(CN2CCC(COC(=O)c3c4n(c5ccccc35)CCCO4)CC2)cc1
logD [5]: 1.3
pKb [1]: 9.8
Activity (3T3-L1): 14%
Ki [2]: 0.0501 nM
Ki [3]: 1580 nM
inhibition at 100 µM (hERG (KCNH2) [17]): 31%
Papp at 1 µM [4]: 0.8 ×10⁻⁶ cm/s
IC50 [12]: 47500 nM

CCCCN1CCC(CNC(=O)c2c3n(c4ccccc24)CCCO3)CC1 [PIBOSEROD]
Ki [18]: 1.58 nM
pKb [1]: 9.5
Ki [3]: > 10000 nM
Ki [19]: 1.58 nM

COC(=O)c1ccccc1-c1ccc(CN2CCC(CNC(=O)c3c4n(c5ccccc35)CCCO4)CC2)cc1
Ki [2]: 0.0631 nM
Ki [3]: > 10000 nM

Cc1noc(-c2ccc(F)cc2NC(=O)OCC2CCN(CCNS(C)(=O)=O)CC2)n1
pKb [20]: 8.9

O=C(NCC1CCNCC1)c1c2n(c3ccccc13)CCCO2
Ki [18]: 63.1 nM
Ki [19]: 63.1 nM

Cn1cc(C(=O)OCC2CCN(CCNS(C)(=O)=O)CC2)c2ccccc21
pKb [1]: 8.7

Cl.O=C(OCc1ccccc1)c1ccccc1-c1ccc(CN2CCC(COC(=O)c3c4n(c5ccccc35)CCCO4)CC2)cc1
logD [5]: 5.1
Papp at 1 µM [4]: 1.1 ×10⁻⁶ cm/s

CC(C)(C)C(=O)OCn1nnc(-c2ccccc2-c2ccc(CN3CCC(COC(=O)c4c5n(c6ccccc46)CCCO5)CC3)cc2)n1.CS(=O)(=O)O
logD [5]: 4.3
Papp at 1 µM [4]: 5.1 ×10⁻⁶ cm/s

COc1ccc(CCCN2CCC(CCC(=O)c3cc(Cl)c(N)c4c3OCCO4)CC2)cc1
pKb [16]: 10.6

CC(=O)OCOC(=O)c1ccccc1-c1ccc(CN2CCC(COC(=O)c3c4n(c5ccccc35)CCCO4)CC2)cc1.CS(=O)(=O)O
logD [5]: 4.5
Papp at 1 µM [4]: 1.4 ×10⁻⁶ cm/s

Nc1c(Cl)cc(C(=O)CCC2CCN(CCCc3ccccc3)CC2)c2c1OCCO2
pKb [16]: 9.6

CS(=O)(=O)O.Cc1oc(=O)oc1COC(=O)c1ccccc1-c1ccc(CN2CCC(COC(=O)c3c4n(c5ccccc35)CCCO4)CC2)cc1
logD [5]: 4.6
Papp at 1 µM [4]: 16.1 ×10⁻⁶ cm/s

CC(O)CCN1CCC(CNC(=O)c2c3n(c4ccccc24)CCCO3)CC1 (stereo unspecified)
Ki [18]: 0.794 nM
Ki [19]: 0.794 nM

Cc1noc(-c2ccccc2NC(=O)OCC2CCN(CCNS(C)(=O)=O)CC2)n1
pKb [20]: 10.8

COc1ccc(NC(=O)OCC2CCN(CCNS(C)(=O)=O)CC2)c(-c2nc(C)no2)c1
pKb [20]: 8.1

O=C(OCC1CCN(Cc2ccc(-c3ccccc3-c3nnn[nH]3)cc2)CC1)c1c2n(c3ccccc13)CCCO2
pKb [1]: 10.6

CCCCN1CCC(CNC(=O)c2c3n(c4cc(O)ccc24)CCCO3)CC1
Ki [18]: 794 nM
Ki [19]: 794 nM

CC(C)CCOC(=O)c1ccccc1-c1ccc(CN2CCC(COC(=O)c3c4n(c5ccccc35)CCCO4)CC2)cc1.CS(=O)(=O)O
logD [5]: 4.9
Papp at 1 µM [4]: 5.4 ×10⁻⁶ cm/s

CS(=O)(=O)NCCN1CCC(CCC(=O)c2cc(Cl)c(N)c3c2OCCO3)CC1
pKb [16]: 9.9

CCCCOC(=O)c1ccccc1-c1ccc(CN2CCC(COC(=O)c3c4n(c5ccccc35)CCCO4)CC2)cc1.CS(=O)(=O)O
logD [5]: 4.9
beta t1/2 (Rattus norvegicus [6]): 9.92 h
Cmax (Rattus norvegicus [8]): 10 ng/mL
AUC (Rattus norvegicus [9]): 124 ng·h/mL
AUC (Rattus norvegicus [10]): 39 ng·h/mL
Papp at 1 µM [4]: 13.9 ×10⁻⁶ cm/s
Cmax [11]: 80 ng/mL
Tmax (Rattus norvegicus [13]): 2 h
Tmax [14]: 6 h
AUC(0-t) at 6 h [15]: 313 ng·h/mL

O=C(OCC1CCN(Cc2ccc(-c3ccccc3-c3nn[nH]n3)cc2)CC1)c1c2n(c3ccccc13)CCCO2
logD [5]: 1.6
inhibition at 50 µM (hERG (KCNH2) [21]): 35%
Activity (3T3-L1): 0%
Ki [2]: 2.51 nM
Ki [3]: > 10000 nM
Papp at 1 µM [4]: 2.9 ×10⁻⁶ cm/s
IC50 [12]: 27500 nM

CC(C)(C)C(=O)OCOC(=O)c1ccccc1-c1ccc(CN2CCC(COC(=O)c3c4n(c5ccccc35)CCCO4)CC2)cc1.CS(=O)(=O)O
logD [5]: 4.7
Papp at 1 µM [4]: 9 ×10⁻⁶ cm/s
